# Data from publication PMC5664438, “The novel isoxazoline ectoparasiticide lotilaner (Credelio™): a non-competitive antagonist specific to invertebrates γ-aminobutyric acid-gated chloride channels (GABACls)” (Parasites & Vectors, 2017).
# Entries after “also recorded” stand apart in the source; their conditions may differ. Read-outs that look alike come from different tables or passages of the source.
# What was measured:
# [1] = target: T1, Ls-GABA1 (Lepeophtheirus salmonis, UniProt A0A2H4NNJ4); test: Antagonist cumulative pre-application concentration-inhibition, TEVC on oocytes expressing Ls-GABA1; assay type: cell-based; details: for nH (Hill coefficient): concentration-inhibition curve
# T1 sequence (A0A2H4NNJ4 entry or part of it): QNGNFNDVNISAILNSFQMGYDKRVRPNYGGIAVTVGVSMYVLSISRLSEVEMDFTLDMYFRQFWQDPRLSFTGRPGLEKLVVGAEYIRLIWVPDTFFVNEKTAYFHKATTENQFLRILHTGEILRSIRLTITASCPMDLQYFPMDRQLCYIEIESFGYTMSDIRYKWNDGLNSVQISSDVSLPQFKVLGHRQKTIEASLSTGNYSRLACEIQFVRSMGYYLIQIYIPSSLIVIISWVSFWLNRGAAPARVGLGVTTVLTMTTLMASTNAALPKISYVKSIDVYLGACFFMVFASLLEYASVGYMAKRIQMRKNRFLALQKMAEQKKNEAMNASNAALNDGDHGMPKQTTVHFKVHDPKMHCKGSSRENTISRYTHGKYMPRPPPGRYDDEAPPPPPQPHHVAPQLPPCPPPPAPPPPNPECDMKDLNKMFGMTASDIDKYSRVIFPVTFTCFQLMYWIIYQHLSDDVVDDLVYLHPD
# [2] = target: T2, DmS-GABA (wild type GABACl, RDLac) (Drosophila melanogaster, UniProt P25123); test: Antagonist cumulative pre-application concentration-inhibition, TEVC on oocytes expressing DmS-GABA; assay type: cell-based; details: for nH (Hill coefficient): concentration-inhibition curve
# T2 construct: expressed in transfected cells; host or cells: Xenopus laevis oocytes injected with in vitro-transcribed capped cRNA (gene synthesised at Genewiz, pT7-TS vector)
# T2 sequence (P25123 45-606 isoform P25123-1 limits assumed): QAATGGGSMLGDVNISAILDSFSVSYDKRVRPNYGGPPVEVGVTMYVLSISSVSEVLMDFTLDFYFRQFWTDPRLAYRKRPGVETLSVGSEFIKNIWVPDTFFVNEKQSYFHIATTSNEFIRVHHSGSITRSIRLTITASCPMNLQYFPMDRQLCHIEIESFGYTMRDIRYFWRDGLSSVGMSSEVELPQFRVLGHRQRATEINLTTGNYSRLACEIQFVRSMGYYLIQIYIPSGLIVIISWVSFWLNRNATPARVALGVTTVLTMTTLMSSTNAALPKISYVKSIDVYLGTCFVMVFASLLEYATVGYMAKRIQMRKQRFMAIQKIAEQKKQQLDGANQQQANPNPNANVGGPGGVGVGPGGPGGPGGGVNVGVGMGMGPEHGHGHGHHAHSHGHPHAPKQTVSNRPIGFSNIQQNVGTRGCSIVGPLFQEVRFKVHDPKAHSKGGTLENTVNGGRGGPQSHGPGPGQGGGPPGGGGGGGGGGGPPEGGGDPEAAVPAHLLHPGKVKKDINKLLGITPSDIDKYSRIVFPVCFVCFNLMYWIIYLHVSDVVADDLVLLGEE
# Excerpt: (§1) The agonist and the drug were then washed off for 15 s and the oocyte exposed again to the same drug concentration for 15 s before increasing to the next concentration.
# In a first step, we investigated the effect of lotilaner on the very well characterized D. melanogaster GABACl.
# [3] = target: T3, Rm-GABA (Rhipicephalus microplus, UniProt C8CGT5); test: Antagonist cumulative pre-application concentration-inhibition, TEVC on oocytes expressing Rm-GABA; assay type: cell-based; details: for nH (Hill coefficient): Rm-GABA, concentration-inhibition curve
# T3 sequence (C8CGT5 entry or part of it): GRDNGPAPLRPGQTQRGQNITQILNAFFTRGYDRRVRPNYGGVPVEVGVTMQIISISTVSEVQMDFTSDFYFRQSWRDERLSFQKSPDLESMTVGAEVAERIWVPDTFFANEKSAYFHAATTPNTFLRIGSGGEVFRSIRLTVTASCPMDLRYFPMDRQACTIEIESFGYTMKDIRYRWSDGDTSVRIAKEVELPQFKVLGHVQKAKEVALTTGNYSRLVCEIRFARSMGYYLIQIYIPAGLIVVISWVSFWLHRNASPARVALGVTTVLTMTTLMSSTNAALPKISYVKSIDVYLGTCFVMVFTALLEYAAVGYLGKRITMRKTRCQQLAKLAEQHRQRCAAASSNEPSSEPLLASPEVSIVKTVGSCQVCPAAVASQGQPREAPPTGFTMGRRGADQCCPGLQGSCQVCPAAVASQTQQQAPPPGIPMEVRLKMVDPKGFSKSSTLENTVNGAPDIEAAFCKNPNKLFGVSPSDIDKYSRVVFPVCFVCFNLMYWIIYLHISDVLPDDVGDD
# [4] = test system: D. melanogaster S302 form; parameters: method as in PMID 24365472; details: cited from earlier work
# [5] = test system: M. domestica GABACls; parameters: method as in PMID 19944072; details: cited from earlier work
# [6] = test system: R. microplus GABACls; parameters: method as in PMID 24365472; details: cited from earlier work
# [7] = target: T4, DmS-GABA receptor (Drosophila melanogaster, UniProt P25123); test: GABA concentration-response relationships for DmS-GABA in absence and presence of lotilaner; assay type: cell-based; parameters: expressed in transfected cells; host or cells: Xenopus laevis oocytes injected with in vitro-transcribed capped cRNA (gene synthesised at Genewiz, pT7-TS vector); details: normalized to initial 100 μM GABA application
# T4 sequence (P25123 45-606 isoform P25123-1 limits assumed): T2 sequence (P25123 45-606 isoform P25123-1 limits assumed)
# Excerpt: Statistical comparisons were done using unpaired Student’s t test.
# [8] = target: T2, DmS-GABA (wild type GABACl, RDLac); test: GABA concentration-activation, two-electrode voltage clamp on Xenopus oocytes expressing DmS-GABA; assay type: cell-based; details: GABA concentration-activation curve
# Procedure: Capped cRNAs were synthesized (T7 mMessage mMachine kit, Ambion, Austin, TX, USA) from the linearized vectors containing the different subunits according to the manufacturer’s protocol. cRNA samples were stored at -80 °C until use. Oocytes were prepared and injected using standard procedures. Briefly, ovaries were harvested from Xenopus females that were deeply anesthetized by cooling down at 4 °C and with exposure to tricaine mesylate (3-aminobenzoic acid ethyl ester, methane sulfonate salt, 150 mg/l). […] Small pieces of ovary were isolated in a sterile Barth solution containing: NaCl (88 mM), KCl (1 mM), NaHCO3 (2.4 mM), HEPES (10 mM, pH 7.5), MgSO4·7H2O (0.82 mM), Ca(NO3)2·4H2O (0.33 mM), CaCl2·6H2O (0.41 mM), at pH 7.4, and supplemented with 20 μg/ml of kanamycin, 100 U/ml penicillin and 100 μg/ml streptomycin. Oocytes were microinjected using a Roboinject automatic injection system (Multi Channel Systems, Reutlingen, Germany) with 15–25 nl of cRNA solution (5–50 ng/μl) and then incubated at 18 °C in sterile filtered Barth solution. Recordings were made 1–6 days post-cRNA injection.
# as §1
# (1) and normalized to the fitted maximal current amplitude.
# [9] = target: T5, Cl-GABAA α1β2γ2 (Canis lupus familiaris, UniProt A0A2H4NNI8+A0A2H4NNJ3+E2RSQ0); test: GABA concentration-activation, two-electrode voltage clamp on Xenopus oocytes expressing Cl-GABAA α1β2γ2; assay type: cell-based
# T5 sequence (E2RSQ0 entry or part of it): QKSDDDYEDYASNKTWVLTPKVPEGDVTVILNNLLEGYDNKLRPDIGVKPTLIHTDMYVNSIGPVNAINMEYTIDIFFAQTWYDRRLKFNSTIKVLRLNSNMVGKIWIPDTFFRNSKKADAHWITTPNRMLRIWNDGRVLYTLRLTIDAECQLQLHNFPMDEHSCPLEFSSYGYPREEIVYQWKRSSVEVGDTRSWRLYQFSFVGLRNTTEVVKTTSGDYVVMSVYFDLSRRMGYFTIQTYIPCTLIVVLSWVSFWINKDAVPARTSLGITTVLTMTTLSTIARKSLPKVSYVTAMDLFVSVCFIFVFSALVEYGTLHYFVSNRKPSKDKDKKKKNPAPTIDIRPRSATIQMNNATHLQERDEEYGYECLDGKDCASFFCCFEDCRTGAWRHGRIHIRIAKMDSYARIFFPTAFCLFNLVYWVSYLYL
# T5 sequence (A0A2H4NNJ3 entry or part of it): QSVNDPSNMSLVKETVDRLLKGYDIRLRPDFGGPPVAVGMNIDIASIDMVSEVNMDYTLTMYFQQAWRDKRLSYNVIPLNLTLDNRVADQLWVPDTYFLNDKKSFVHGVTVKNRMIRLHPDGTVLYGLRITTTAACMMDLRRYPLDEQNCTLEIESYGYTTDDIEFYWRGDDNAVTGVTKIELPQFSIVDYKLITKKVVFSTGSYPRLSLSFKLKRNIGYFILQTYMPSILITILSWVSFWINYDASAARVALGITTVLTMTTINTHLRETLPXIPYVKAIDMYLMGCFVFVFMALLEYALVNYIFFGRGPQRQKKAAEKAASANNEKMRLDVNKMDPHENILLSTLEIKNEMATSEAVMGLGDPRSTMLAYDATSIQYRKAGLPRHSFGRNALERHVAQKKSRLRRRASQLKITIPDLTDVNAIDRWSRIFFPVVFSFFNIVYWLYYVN
# T5 sequence (A0A2H4NNI8 entry or part of it): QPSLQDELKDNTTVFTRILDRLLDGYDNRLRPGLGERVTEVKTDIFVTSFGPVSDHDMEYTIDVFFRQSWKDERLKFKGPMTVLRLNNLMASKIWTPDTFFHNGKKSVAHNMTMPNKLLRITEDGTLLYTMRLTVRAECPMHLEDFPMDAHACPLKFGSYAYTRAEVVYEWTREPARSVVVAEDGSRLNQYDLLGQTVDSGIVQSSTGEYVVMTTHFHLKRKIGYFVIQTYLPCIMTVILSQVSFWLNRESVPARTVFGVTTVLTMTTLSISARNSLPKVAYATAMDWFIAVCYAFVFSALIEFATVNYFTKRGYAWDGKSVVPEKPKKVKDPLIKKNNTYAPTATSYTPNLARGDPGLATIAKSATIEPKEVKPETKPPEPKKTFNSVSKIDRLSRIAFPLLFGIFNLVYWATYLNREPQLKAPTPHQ
# Procedure: Capped cRNAs were synthesized (T7 mMessage mMachine kit, Ambion, Austin, TX, USA) from the linearized vectors containing the different subunits according to the manufacturer’s protocol. cRNA samples were stored at -80 °C until use. Oocytes were prepared and injected using standard procedures. Briefly, ovaries were harvested from Xenopus females that were deeply anesthetized by cooling down at 4 °C and with exposure to tricaine mesylate (3-aminobenzoic acid ethyl ester, methane sulfonate salt, 150 mg/l). The animal care of Xenopus laevis (accreditation de l’animalerie HiQScreen N° 171) and sacrifice was done according to the guidance set by the veterinary authorities of the canton of Geneva based on art.18 on the animal welfare legislation (LPA, art. 141 Ordonnance sur la protection des animaux, OPAn) with the authorization N° 27479 GE/15/16). Small pieces of ovary were isolated in a sterile Barth solution containing: NaCl (88 mM), KCl (1 mM), NaHCO3 (2.4 mM), HEPES (10 mM, pH 7.5), MgSO4·7H2O (0.82 mM), Ca(NO3)2·4H2O (0.33 mM), CaCl2·6H2O (0.41 mM), at pH 7.4, and supplemented with 20 μg/ml of kanamycin, 100 U/ml penicillin and 100 μg/ml streptomycin. Oocytes were microinjected using a Roboinject automatic injection system (Multi Channel Systems, Reutlingen, Germany) with 15–25 nl of cRNA solution (5–50 ng/μl) and then incubated at 18 °C in sterile filtered Barth solution. […]
# [10] = target: T3, Rm-GABA; test: cell-based
# Procedure: (§2) Capped cRNAs were synthesized (T7 mMessage mMachine kit, Ambion, Austin, TX, USA) from the linearized vectors containing the different subunits according to the manufacturer’s protocol. cRNA samples were stored at -80 °C until use. Oocytes were prepared and injected using standard procedures. Briefly, ovaries were harvested from Xenopus females that were deeply anesthetized by cooling down at 4 °C and with exposure to tricaine mesylate (3-aminobenzoic acid ethyl ester, methane sulfonate salt, 150 mg/l). The animal care of Xenopus laevis (accreditation de l’animalerie HiQScreen N° 171) and sacrifice was done according to the guidance set by the veterinary authorities of the canton of Geneva based on art.18 on the animal welfare legislation (LPA, art. 141 Ordonnance sur la protection des animaux, OPAn) with the authorization N° 27479 GE/15/16). Small pieces of ovary were isolated in a sterile Barth solution containing: NaCl (88 mM), KCl (1 mM), NaHCO3 (2.4 mM), HEPES (10 mM, pH 7.5), MgSO4·7H2O (0.82 mM), Ca(NO3)2·4H2O (0.33 mM), CaCl2·6H2O (0.41 mM), at pH 7.4, and supplemented with 20 μg/ml of kanamycin, 100 U/ml penicillin and 100 μg/ml streptomycin. Oocytes were microinjected using a Roboinject automatic injection system (Multi Channel Systems, Reutlingen, Germany) with 15–25 nl of cRNA solution (5–50 ng/μl) and then incubated at 18 °C in sterile filtered Barth solution. Recordings were made 1–6 days post-cRNA injection.
# (§3) . In experiments in which the channel was challenged several times by GABA, enough time was allowed between applications for the channel to recover from desensitization. […]; 10 μM for DmS-GABA and DmR2-GABA; 50 μM for Rm-GABA; and 500 μM for Ls-GABA1). The agonist and the drug were then washed off for 15 s and the oocyte exposed again to the same drug concentration for 15 s before increasing to the next concentration.
# (§4) . (1) and normalized to the fitted maximal current amplitude. […] . Table 1 and Additional file 3: Figure S1f). The Hill coefficients were higher than 1 for the five receptors (Table 1) indicating the presence of more than one agonist binding site per receptor. These values were obtained from peak current amplitudes. […]; Table 1 and Additional file 3: Figure S1f).
# [11] = target: T1, Ls-GABA1; test: cell-based
# Procedure: as §2, §3, §4
# [12] = target: T4, DmS-GABA receptor; test: Co-application protocol (GABA plus drug, no pre-incubation), TEVC on oocytes expressing DmS-GABA; details: GABA 1 μM + 100 nM drug
# [13] = Biological activity of the enantiomers in vivo (data not shown)
# [14] = target: T5, Cl-GABAA α1β2γ2; test: Antagonist cumulative pre-application concentration-inhibition, TEVC on oocytes expressing Cl-GABAA α1β2γ2; assay type: cell-based
compound,measurement,setting,value
"N#Cc1nn(-c2c(Cl)cc(C(F)(F)F)cc2Cl)c(N)c1[S+]([O-])C(F)(F)F (stereo not drawn) [Fipronil, fipronil, reference compound]",IC50,[1],165 ± 11.8 nM
same,nH (Hill coefficient),[1]; Ls-GABA1,-0.78 ± 0.04
same,IC50,[2],27.6 ± 1.71 nM
same,nH (Hill coefficient),[2]; DmS-GABA,-0.85 ± 0.04
same,IC50,[3],25.6 ± 2.25 nM
same,nH (Hill coefficient),[3],-0.56 ± 0.03
same,loss of potency,[4],18 fold
Cc1cc(C2=NOC(c3cc(Cl)cc(Cl)c3)(C(F)(F)F)C2)ccc1C(=O)NCC(=O)NCC(F)(F)F (stereo not drawn) [fluralaner],higher inhibitor potency over fipronil,[5],5 fold
same,higher inhibitor potency over fipronil,[6],5 fold
"ClC1=C(Cl)[C@]2(Cl)[C@@H]3[C@@H]4C[C@@H]([C@H]5O[C@@H]45)[C@@H]3[C@@]1(Cl)C2(Cl)Cl [Dieldrin, dieldrin, reference compound]",IC50,[2],4170 ± 920 nM
same,nH (Hill coefficient),[2]; DmS-GABA,-0.45 ± 0.05
"NCCCC(=O)O [GABA, γ-aminobutyric acid]",GABA Rmax,[7]; GABA alone,97.706 ± 2.45%
same,nH (Hill coefficient),[8],1.57 ± 0.15
same,EC50,"[9]; EC50 (μM), natural agonist GABA, ± SEM",1.8 ± 0.14 µM
same,nH (Hill coefficient),[9]; GABA concentration-activation curve,1.31 ± 0.12
same,EC50,[10],50000 ± 760 nM
same,nH (Hill coefficient),"[10]; Rm-GABA, GABA concentration-activation curve",2.27 ± 0.19
same,EC50,[11],393000 ± 11100 nM
same,nH (Hill coefficient),"[11]; Ls-GABA1, GABA concentration-activation curve",1.35 ± 0.04
Cc1cc(C2=NO[C@](c3cc(Cl)c(Cl)c(Cl)c3)(C(F)(F)F)C2)sc1C(=O)NCC(=O)NCC(F)(F)F [AHC-2229544],nH (Hill coefficient),[2]; DmS-GABA,-0.30 ± 0.03
same,inhibition of the GABA-induced current,"[2]; DmS-GABA, up to 0.3 μM",no inhibition
same,IC50,[2]; read-out: IC50,959 ± 268 nM
same,slight decrease in both peaks and tails currents,[12],< 10%
same,less biological activity than the S-enantiomer,[13],100 ×
"Cc1cc(C2=NO[C@@](c3cc(Cl)c(Cl)c(Cl)c3)(C(F)(F)F)C2)sc1C(=O)NCC(=O)NCC(F)(F)F [Lotilaner, lotilaner]",GABA Rmax in presence of 0.1 μM lotilaner,[7]; lotilaner 0.1 μM,50.98 ± 0.47%
same,GABA Rmax in presence of 1 μM lotilaner,[7]; lotilaner 1 μM,13.65 ± 1.12%
same,IC50,[1],52.4 ± 4.54 nM
same,fold lower IC50 value compared to fipronil,[1]; Ls-GABA1,3 fold
same,nH (Hill coefficient),[1]; Ls-GABA1,-0.75 ± 0.04
same,IC50,[14],> 10000 nM
same,nH (Hill coefficient),"[14]; Cl-GABAA α1β2γ2, concentration-inhibition curve",-0.09 ± 0.02
same,inhibitory effect / activity on dog GABAA receptor,"[14]; Cl-GABAA α1β2γ2, up to the highest dose tested, 10 μM",no activity; also recorded: No obvious inhibitory effect
same,GABA current inhibition,"[2]; DmS-GABA, GABA 10 μM, lotilaner concentrations > 1 μM",almost complete GABA current inhibition
same,nH (Hill coefficient),[2]; DmS-GABA,-0.64 ± 0.03
same,IC50,[2]; read-out: IC50,23.8 ± 1.87 nM
same,potentiation of peak current at first co-application,[12]; on average,> 30%
same,potentiation of tail current at first co-application,[12]; on average,> 10%
same,IC50,[3],36.8 ± 4.39 nM
same,nH (Hill coefficient),[3],-0.47 ± 0.03
